One data set in a line: in vitro. Particulars: pig.
The next data set addresses FGFR1 (Homo sapiens, UniProt P11362). The data set can be described thus: SelectScreen kinase activity profiling, FGFR1. Format: biochemical. Also noted: concentration or dose not given beside the values. The following applies: for Mean % Inhibition: mean of two independent trials. The source says: (§1) To characterize the RTK inhibitory activity of the antiangiogenic SMs described herein, 36 compounds were chosen and screened using Invitrogen's SelectScreen® kinase activity profiling service (described on-line at tools.invitrogen.com/content.cfm?pageid=10413#selection). VEGFR1 and FGFR2 RTK inhibitory activities were studied. […] Overall, a small minority of the SMs tested had any substantial kinase inhibitory activity. This observation supports a mechanism of antiangiogenic action other than RTK inhibition for most of the SMs described herein.

The target in another data set is KDR(VEGFR2) (Homo sapiens, UniProt P35968). The data set can be described thus: SelectScreen kinase activity profiling, KDR(VEGFR2). Format: biochemical. The arrangement: % Inhibition / Mean % Inhibition: concentration or dose not given beside the values. Particulars: KDR(VEGFR2); for Mean % Inhibition: mean of two independent trials.
Sequence of KDR(VEGFR2) (P35968 20-1356): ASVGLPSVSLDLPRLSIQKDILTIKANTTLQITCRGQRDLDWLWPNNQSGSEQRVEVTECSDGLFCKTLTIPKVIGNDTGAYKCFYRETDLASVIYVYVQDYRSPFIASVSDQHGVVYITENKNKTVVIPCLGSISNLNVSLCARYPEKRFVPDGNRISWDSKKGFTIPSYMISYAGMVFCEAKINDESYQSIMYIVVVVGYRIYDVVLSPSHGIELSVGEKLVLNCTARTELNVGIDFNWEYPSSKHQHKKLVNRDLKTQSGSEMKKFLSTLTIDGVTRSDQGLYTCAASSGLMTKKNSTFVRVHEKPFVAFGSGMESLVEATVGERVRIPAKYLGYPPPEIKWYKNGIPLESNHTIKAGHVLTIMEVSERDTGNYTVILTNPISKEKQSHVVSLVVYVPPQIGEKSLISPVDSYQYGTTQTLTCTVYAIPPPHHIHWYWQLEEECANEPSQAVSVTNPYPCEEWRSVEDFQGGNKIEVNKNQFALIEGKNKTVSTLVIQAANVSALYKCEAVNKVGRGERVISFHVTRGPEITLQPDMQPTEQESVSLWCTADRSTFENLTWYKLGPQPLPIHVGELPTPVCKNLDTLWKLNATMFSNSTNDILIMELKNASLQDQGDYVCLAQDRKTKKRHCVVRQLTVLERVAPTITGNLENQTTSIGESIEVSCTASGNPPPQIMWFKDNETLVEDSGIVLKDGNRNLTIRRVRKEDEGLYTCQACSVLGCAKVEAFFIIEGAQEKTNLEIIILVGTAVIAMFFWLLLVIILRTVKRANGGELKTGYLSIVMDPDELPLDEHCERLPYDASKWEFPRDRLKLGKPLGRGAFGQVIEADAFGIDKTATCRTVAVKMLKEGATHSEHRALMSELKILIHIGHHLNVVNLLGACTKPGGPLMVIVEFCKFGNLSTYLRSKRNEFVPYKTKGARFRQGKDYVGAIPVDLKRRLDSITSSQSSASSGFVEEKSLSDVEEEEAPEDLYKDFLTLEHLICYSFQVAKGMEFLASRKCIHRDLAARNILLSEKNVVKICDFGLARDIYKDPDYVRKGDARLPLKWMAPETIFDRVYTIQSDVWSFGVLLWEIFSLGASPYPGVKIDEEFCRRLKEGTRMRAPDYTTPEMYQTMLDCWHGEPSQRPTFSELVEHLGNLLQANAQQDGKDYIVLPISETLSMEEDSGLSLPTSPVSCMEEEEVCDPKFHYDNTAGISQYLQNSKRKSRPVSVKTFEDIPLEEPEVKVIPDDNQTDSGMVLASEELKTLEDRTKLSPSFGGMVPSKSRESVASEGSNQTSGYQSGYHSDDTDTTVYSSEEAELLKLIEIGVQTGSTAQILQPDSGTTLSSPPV
Description: as §1

Setting [1] is: first of two independent trials.
[2] abbreviates: second of two independent trials.

Sequence of FGFR1 (P11362 398-822 limits assumed): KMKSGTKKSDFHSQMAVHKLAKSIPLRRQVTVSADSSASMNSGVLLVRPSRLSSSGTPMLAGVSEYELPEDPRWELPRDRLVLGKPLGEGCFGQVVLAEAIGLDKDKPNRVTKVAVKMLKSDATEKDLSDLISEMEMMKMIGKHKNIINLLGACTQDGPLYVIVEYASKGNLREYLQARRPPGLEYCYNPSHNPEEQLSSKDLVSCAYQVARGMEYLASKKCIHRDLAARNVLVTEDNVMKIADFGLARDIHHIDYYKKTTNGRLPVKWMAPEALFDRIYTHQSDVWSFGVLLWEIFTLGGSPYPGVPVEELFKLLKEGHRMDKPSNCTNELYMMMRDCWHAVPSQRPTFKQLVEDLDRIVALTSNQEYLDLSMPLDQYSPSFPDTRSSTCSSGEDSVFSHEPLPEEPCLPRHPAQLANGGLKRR

In the data set “in vitro”, `CC(C)(C)c1cc(C#N)cc(Br)c1OP(=O)(Oc1c(Br)cc(C#N)cc1C(C)(C)C)c1ccccc1` [Compound 60, 3-bromo-4-[(2-bromo-6-tert-butyl-4-cyanophenoxy)-phenylphosphoryl]oxy-5-tert-butylbenzonitrile] returned a cytotoxicity of 6.95%.
Still for that read-out and setting: with `CC(C)(C)c1c2c(c(C(C)(C)C)c3c1OCN(Cc1ccccc1)C3)OCN(Cc1ccccc1)C2` [Compound 51, 3,8-dibenzyl-5,10-ditert-butyl-2,4,7,9-tetrahydro-[1,3]oxazino[6,5-g][1,3]benzoxazine] the figure was 8.56%.
For the compound `Cc1ccc(S(=O)(=O)OCC(=O)O)cc1` [Compound 41, 2-(4-methylphenyl)sulfonyloxyacetic acid], in “in vitro”, the cytotoxicity is 7.59%.
In turn, `COC(=O)c1ccc(CCc2cc(O)ccc2O)cc1` [Compound 47, methyl 4-[2-(2,5-dihydroxyphenyl)ethyl]benzoate] came in with a cytotoxicity in “in vitro” of 6.86%.
In the case of `CC(C)(O)/C=C/C(=O)C(C)(O)C1C(O)CC2(C)C3CC=C4C(C=C(O)C(=O)C4(C)C)C3(C)C(=O)CC12C` (stereo not shown) [compound 521777], the “% Inhibition” value at FGFR1 (setting [1]) turned out to be 1%; on FGFR1 (setting [2]), 0%; on KDR(VEGFR2) (setting [1]), 10%; on KDR(VEGFR2) (setting [2]), 8%. Also, the “Mean % Inhibition” value was 1% at FGFR1 and 9% at KDR(VEGFR2).
In the case of `Nc1cc[c]([Hg])cc1.Nc1nc2c(ncn2C2OC(CO)C(O)C2O)c(=[SH+])[nH]1` (stereo not shown) [compound 321237], the “% Inhibition” value came out at 7% at FGFR1 (setting [1]), 5% at FGFR1 (setting [2]), 105% at KDR(VEGFR2) (setting [1]) and 104% at KDR(VEGFR2) (setting [2]). In addition, the figures for the “Mean % Inhibition” value on FGFR1 and on KDR(VEGFR2) were 6% and 105%, respectively.
Regarding `COC(=O)c1ccc(CCc2cc(O)ccc2O)cc1` [compound 681152], the “% Inhibition” value at FGFR1 (setting [1]) was 4%; on FGFR1 (setting [2]), 3%; on KDR(VEGFR2) (setting [1]), 10%; at KDR(VEGFR2) (setting [2]), 8%. Besides, the “Mean % Inhibition” value came out at 3% at FGFR1 and 9% on KDR(VEGFR2).
For the compound `O=C(O)C1CCCN1Cc1ccc2c(c1)OCO2` (stereo not shown) [compound 108895], the “% Inhibition” value worked out at 4% on FGFR1 (setting [1]), 4% on FGFR1 (setting [2]), 5% at KDR(VEGFR2) (setting [1]) and 6% at KDR(VEGFR2) (setting [2]). For the same compound, the “Mean % Inhibition” value on FGFR1 turned out to be 4%; at KDR(VEGFR2) it was 6%.
With `CC1(C)C2CCC1(C)C(OC(=O)CSC#N)C2` (stereo not shown) [compound 3535], the “% Inhibition” value at FGFR1 (setting [1]) is listed as −1%; on FGFR1 (setting [2]) it was −3%; on KDR(VEGFR2) (setting [1]), 10%; at KDR(VEGFR2) (setting [2]), 5%. Further, the “Mean % Inhibition” value at FGFR1 is listed as −2%; at KDR(VEGFR2) it was 8%.
Regarding `CC(C)(C)c1cc(O)ccc1O` [compound 4972], the “% Inhibition” value on FGFR1 (setting [1]) is 3%; on FGFR1 (setting [2]) it was −7%; on KDR(VEGFR2) (setting [1]) it was 2%; on KDR(VEGFR2) (setting [2]), 11%. For the same compound, the “Mean % Inhibition” value at FGFR1 is listed as −2%; on KDR(VEGFR2), 7%.
With `CS(=O)(=O)c1ccc(/C=N/NC(N)=S)cc1` [compound 27063], the “% Inhibition” value on FGFR1 (setting [1]) is listed as −3%; on FGFR1 (setting [2]), −2%; on KDR(VEGFR2) (setting [1]) it was 12%; at KDR(VEGFR2) (setting [2]) it was 11%. The “Mean % Inhibition” value on FGFR1 is −3%; at KDR(VEGFR2), 11%.
Regarding `O=[As](O)(O)c1ccc(Cc2ccc([As](=O)(O)O)cc2)cc1` [compound 48300], the “% Inhibition” value on FGFR1 (setting [1]) amounted to 8%; at FGFR1 (setting [2]) it was 10%; on KDR(VEGFR2) (setting [1]), 76%; on KDR(VEGFR2) (setting [2]) it was 78%. Also, the “Mean % Inhibition” value came to 9% on FGFR1 and 77% on KDR(VEGFR2).
As for `O=C(O)c1c(Br)c(Br)c(Br)c(Br)c1C1c2ccc(O)cc2Oc2cc(O)ccc21` [compound 119889], the “% Inhibition” value is on record as 96% at FGFR1 (setting [1]), 95% on FGFR1 (setting [2]), 103% at KDR(VEGFR2) (setting [1]) and 104% at KDR(VEGFR2) (setting [2]). The “Mean % Inhibition” value on FGFR1 came out at 96%; at KDR(VEGFR2), 103%.
Take `COc1ccc(NCc2c(O)ccc3ccccc23)cc1` [compound 47924]: the “% Inhibition” value on FGFR1 (setting [1]) came to 1%; on FGFR1 (setting [2]), 3%; on KDR(VEGFR2) (setting [1]), 21%; on KDR(VEGFR2) (setting [2]) it was 18%. The results for the “Mean % Inhibition” value on FGFR1 and at KDR(VEGFR2) were 2% and 19%, respectively.
Consider `CC1=C(Br)C(=O)C(C)=C(Br)C1=O.Cc1c(O)c(Br)c(C)c(O)c1Br` [compound 112200], for which the “% Inhibition” value on FGFR1 (setting [1]) is on record as 9%; at FGFR1 (setting [2]) it was 5%; at KDR(VEGFR2) (setting [1]), 100%; at KDR(VEGFR2) (setting [2]), 99%. In addition, the “Mean % Inhibition” value at FGFR1 was 7%; on KDR(VEGFR2), 99%.
For `CC(=N[N-]C(=S)SCc1ccccc1)c1ccccn1.[Cl][Cu+]` [compound 295642], the “% Inhibition” value at FGFR1 (setting [1]) stood at 2%; on FGFR1 (setting [2]), 9%; at KDR(VEGFR2) (setting [1]), 19%; on KDR(VEGFR2) (setting [2]), 17%. In addition, the results for the “Mean % Inhibition” value on FGFR1 and on KDR(VEGFR2) were 6% and 18%, respectively.
In the case of `CC(C)(C)c1c2c(c(C(C)(C)C)c3c1OCN(Cc1ccccc1)C3)OCN(Cc1ccccc1)C2` [compound 48458], the “% Inhibition” value is 5% at FGFR1 (setting [1]), 8% on FGFR1 (setting [2]), 13% at KDR(VEGFR2) (setting [1]) and 9% at KDR(VEGFR2) (setting [2]). Also, the “Mean % Inhibition” value on FGFR1 was determined as 6%; on KDR(VEGFR2) it was 11%.
Consider `Cc1cc(O)c(-c2cc(O)c(C)cc2O)cc1O` [compound 2805], for which the “% Inhibition” value on FGFR1 (setting [1]) came out at 1%; on FGFR1 (setting [2]) it was 10%; at KDR(VEGFR2) (setting [1]), 42%; at KDR(VEGFR2) (setting [2]), 52%. Further, the results for the “Mean % Inhibition” value at FGFR1 and at KDR(VEGFR2) were 6% and 47%, respectively.
As to `CSC(=[SH+])[N-]N=C(c1ccccn1)c1ccccn1.[Cu][Br]` [compound 321206], the “% Inhibition” value on FGFR1 (setting [1]) came out at 5%; on FGFR1 (setting [2]), 5%; on KDR(VEGFR2) (setting [1]), 52%; on KDR(VEGFR2) (setting [2]), 45%. Further, the “Mean % Inhibition” value at FGFR1 was determined as 5%; on KDR(VEGFR2) it was 49%.
Turning to `COc1ccc(-c2csc3c2-n2cccc2C3=O)cc1` [compound 676693], the “% Inhibition” value on FGFR1 (setting [1]) turned out to be 4%; at FGFR1 (setting [2]) it was 3%; at KDR(VEGFR2) (setting [1]), 1%; on KDR(VEGFR2) (setting [2]) it was 8%. Besides, the “Mean % Inhibition” value on FGFR1 came to 3%; at KDR(VEGFR2), 5%.
`CCCCC[CH2][Hg][S]c1nc(N)nc2[nH]cnc12` [compound 268879]: the “% Inhibition” value on FGFR1 (setting [1]) was 3%; at FGFR1 (setting [2]), −2%; at KDR(VEGFR2) (setting [1]) it was 40%; at KDR(VEGFR2) (setting [2]), 38%. Besides, the “Mean % Inhibition” value came out at 1% at FGFR1 and 39% at KDR(VEGFR2).
Turning to `C1=Cc2ccccc2C1.C=C(C)c1ccccc1.[N-]=[N+]=Nc1ccccc1` [compound 122351], the “% Inhibition” value at FGFR1 (setting [1]) is −1%; at FGFR1 (setting [2]), 4%; at KDR(VEGFR2) (setting [1]), 4%; at KDR(VEGFR2) (setting [2]), 4%. In addition, the results for the “Mean % Inhibition” value at FGFR1 and at KDR(VEGFR2) were 1% and 4%, respectively.

For the origin of these results see patent US9504729B2, “Antiangiogenic small molecules and methods of use” (The United States of America, as represented by the …, priority 2009, dated 2016).
